# Laboratory results reported in patent publication US9993001B2, “Herbicidal composition” (ISHIHARA SANGYO KAISHA, LTD., priority 2014, dated 2018).
# Columns and labels:
# Format in all cases: in vivo
# [1] = test system: barnyardgrass (Echinochloa crus-qalli L.); assay: Test Example 5: adzuki bean field, soil treatment, metobromuron + fluazifop-P-butyl; settings: Echinochloa, soil, read-out: Growth inhibition rate of barnyardgrass (%) Measured value
# Excerpt: (§1) When the herbicidal activity in a case where two active ingredients are combined, is larger than the simple sum of the respective herbicidal activities of the two active ingredients (the expected activity), it is called a synergistic effect. The activity expected by the combination of two active ingredients can be calculated as follows (Colby S. R., “Weed”, vol. 15, p. 20-22, 1967). E=α+β−(α×β[…]) where α: growth inhibition rate when treated with x (g/ha) of herbicide X, • β: growth inhibition rate when treated with y (g/ha) of herbicide Y, • E: growth inhibition rate expected when treated with x (g/ha) of herbicide X and y (g/ha) of herbicide Y.
# (§2) On the 19th day after treatment, the state of growth of barnyardgrass was visually observed and evaluated in accordance with the following standards. The growth inhibition rate (%) [measured value] and the growth inhibition rate (%) [calculated value] calculated by the Colby's method, are shown in Table 2.
# (§3) Growth inhibition rate (%)=inhibition rate) (%) of 0 (equivalent to the non-treated area) to 100 (complete kill) […]
# On the 39th day after treatment, the state of growth of barnyardgrass (Echinochloa crus-qalli L.) which occurred naturally, was visually observed and evaluated in the same manner as in Test Example 1.
# [2] = test system: Nepalese Smartweed (Persicaria nepalensis (Meisn.) H. Gross); assay: Test Example 6: adzuki bean field, soil treatment, metobromuron + S-metolachlor; settings: soil, read-out: Growth inhibition rate of Nepalese Smartweed (%) Measured value
# Excerpt: as §1, §2
# (§4) Growth inhibition rate (%)=inhibition rate) (%) of 0 (equivalent to the non-treated area) to 100 (complete kill)
# In an adzuki bean agricultural field (9.6 square meters per one test section), predetermined amounts of SC containing metobromuron as active ingredient (same as in Test Example 1) and EC containing S-metolachlor as active ingredient (same as in Test Example 2) were diluted with water corresponding to 1,000 L per hectare and applied for soil treatment, prior to germination of adzuki bean and weeds.
# On the 39th day after treatment, the state of growth of Nepalese Smartweed (Persicaria nepalensis (Meisn.) H. Gross) which occurred naturally, was visually observed and evaluated in the same manner as in Test Example 1.
# [3] = test system: common lambsquarters (Chenopodium album L.); assay: Test Example 8: corn field, soil treatment, metobromuron + S-metolachlor; settings: soil, read-out: Growth inhibition rate of common lambsquarters (%) Measured value
# Excerpt: as §1, §2, §3
# On the 28th day after treatment, the state of growth of common lambsquarters (Chenopodium album L.) which occurred naturally, was visually observed and evaluated in the same manner as in Test Example 1.
# [4] = test system: black nightshade (Solanum nigrum L.); assay: Test Example 14: pot, soil treatment, metobromuron + pyroxasulfone; settings: soil, read-out: Growth inhibition rate of black nightshade (%) Measured value
# Excerpt: as §1, §2, §4
# Soil was put into a 1/300,000 ha pot, and seeds of black nightshade (Solanum nigrum L.) were sown. Prior to germination of black nightshade, predetermined amounts of SC containing metobromuron as active ingredient (same as in Test Example 1) and WG containing pyroxasulfone as active ingredient (same as in Test Example 13) were diluted with water corresponding to 1,000 L per hectare and applied for soil treatment.
# On the 12th day after treatment, the state of growth of black nightshade was visually observed and evaluated in the same manner as in Test Example 1.
# [5] = test system: barnyardgrass (Echinochloa crus-galli L.); assay: Test Example 15: pot, soil treatment, metobromuron + chlorpropham; settings: soil, read-out: Growth inhibition rate of barnyardgrass (%) Measured value
# Excerpt: as §1, §2, §4
# (§5) Soil was put into a 1/300,000 ha pot, and seeds of barnyardgrass (Echinochloa crus-galli L.) were sown. […]
# (§6) On the 21st day after treatment, the state of growth of barnyardgrass was visually observed and evaluated in the same manner as in Test Example 1.
# [6] = test system: black nightshade (Solanum nigrum L.); assay: Test Example 17: pot, soil treatment, metobromuron + chlorpropham; settings: soil, read-out: Growth inhibition rate of black nightshade (%) Measured value
# Excerpt: as §1, §2, §4
# (§7) Soil was put into a 1/300,000 ha pot, and seeds of barnyardgrass (Echinochloa crus-galli L.) were sown. On the day after seeding, predetermined amounts of SC containing metobromuron as active ingredient (same as in Test Example 1) and EC containing chlorpropham as active ingredient (same as in Test Example 1) were diluted with water corresponding to 1,000 L per hectare and applied for soil treatment.
# as §6
# The test was carried out in the same manner as in Test Example 15 except that barnyardgrass (Echinochloa crus-galli L.) was changed to black nightshade (Solanum nigrum L.), to obtain the results as shown in Table 18.
# [7] = test system: barnyardgrass (Echinochloa crus-galli L.); assay: Test Example 18: pot, soil treatment, metobromuron + chlorpropham; settings: soil, read-out: Growth inhibition rate of barnyardgrass (%) Measured value
# Excerpt: as §1, §2, §4, §5
# (§8) On the 26th day after treatment, the state of growth of barnyardgrass was visually observed and evaluated in the same manner as in Test Example 1.
# [8] = test system: annual bluegrass (Poa annua L.); assay: Test Example 19: pot, soil treatment, metobromuron + chlorpropham; settings: soil, read-out: Growth inhibition rate of annual bluegrass (%) Measured value
# [9] = test system: common lambsquarters (Chenopodium album L.); assay: Test Example 20: pot, soil treatment, metobromuron + chlorpropham; settings: soil, read-out: Growth inhibition rate of common lambsquarters (%) Measured value
# Excerpt: as §1, §2, §4, §7, §8
# The test was carried out in the same manner as in Test Example 18 except that barnyardgrass (Echinochloa crus-galli L.) was changed to common lambsquarters (Chenopodium album L.), to obtain the results as shown in Table 21.
# [10] = test system: black nightshade (Solanum nigrum L.); assay: Test Example 31: pot, soil treatment, metobromuron + thiobencarb; settings: soil, read-out: Growth inhibition rate of black nightshade (%) Measured value
# Excerpt: as §1, §2, §4
# Soil was put into a 1/300,000 ha pot, and seeds of common lambsquarters (Chenopodium album L.) were sown. On the day after seeding, predetermined amounts of SC containing metobromuron as active ingredient (same as in Test Example 1) and EC containing thiobencarb as active ingredient (trade name: Saturn NYUZAI, manufactured by KUMIAI CHEMICAL INDUSTRY Co., Ltd.) were diluted with water corresponding to 1,000 L per hectare and applied for soil treatment.
# On the 20th day after treatment, the state of growth of common lambsquarters was visually observed and evaluated in the same manner as in Test Example 1.
# The test was carried out in the same manner as in Test Example 30 except that common lambsquarters (Chenopodium album L.) was changed to black nightshade (Solanum nigrum L.), to obtain the results as shown in Table 32.
smiles,measurement,setting,value
"CON(C)C(=O)Nc1ccc(Br)cc1 [Metobromuron, 3-(4-bromophenyl)-1-methoxy-1-methylurea]",inhibition at 1000 g/ha,[1],53%
same,inhibition at 1000 g/ha,[2],35%
same,inhibition at 1500 g/ha,[2],40%
same,inhibition at 1000 g/ha,[3],78%
same,inhibition at 375 g/ha,[4],64%
same,inhibition at 750 g/ha,[4],83%
same,inhibition at 1500 g/ha,[5],72%
same,inhibition at 1000 g/ha,[6],78%
same,inhibition at 188 g/ha,[7],0%
same,inhibition at 375 g/ha,[8],50%
same,inhibition at 188 g/ha,[9],50%
same,inhibition at 375 g/ha,[10],65%
same,inhibition at 562.5 g/ha,[10],76%
